Experimental data published in patent publication US6140509A (priority 1999, dated 2000).
Positions count from the first letter of the chain named.

Tests used:
[1] = tested on: human mutated 5HT2A receptor, AP-3; test: Receptor-mediated inositol phosphate (IP3) accumulation, AP-3; assay type: cell-based; settings: statement in words
[2] = tested on: Adult male Sprague-Dawley rats; test: Amphetamine-stimulated locomotor activity; assay type: in vivo
Description: A 5HT2A receptor antagonist or inverse agonist is expected to decrease amphetamine-stimulated locomotion without affecting baseline locomotion. See, for example, Soresnon, et al, 266(2) J. Pharmacol. Exp. Ther. 684 (1993). […] For the following study, the following parameters and protocol were utilized:
Adult male Sprague-Dawley rats were utilized for these studies. Animals were housed in groups of 2-3 in hanging plastic cages with food and water available at all times. Animals were weighed and handled for at least one day prior to surgery and throughout the studies. For these studies, Vehicle consisted of 90% ethanol (100%) and 10% water.
A San Diego Instruments Flex Field apparatus was used to quantify baseline and amphetamine-stimulated locomotor activity. This apparatus consists of four 16"×16" clear plastic open fields. Photocell arrays (16 in each dimension) interfaced with a personal computer to automatically quantify activity. Several measures of activity can be assessed with the apparatus, including total photocell beam breaks. Animals (vehicle control and Compound treated) were injected s.c. 30 minutes prior to initiation of analysis. Following this 30 minute period, animals were placed individually into an open field and baseline activity was assessed for 30 minutes (habituation phase). […]

[3] = tested on: 5HT2A receptors (cerebral cortex); test: I125-LSD displacement from brain sections, cortex (autoradiography); assay type: binding, Sprague-Dawley rats; settings: 1 micromolar compound, 1 nanomolar I125-LSD, 30 minutes, room temperature
[4] = molecular target: T1, constitutively active mutant human 5HT2C receptor AP-1 (Homo sapiens, UniProt P28335, S310K); test: [35S]GTPγS binding assay, AP-1 membranes; assay type: biochemical; settings: 30 μM mianserin, 293T cells, Wallac scintistrips
T1 construct: expressed in transfected cells
T1 sequence (P28335 33-458 S310K): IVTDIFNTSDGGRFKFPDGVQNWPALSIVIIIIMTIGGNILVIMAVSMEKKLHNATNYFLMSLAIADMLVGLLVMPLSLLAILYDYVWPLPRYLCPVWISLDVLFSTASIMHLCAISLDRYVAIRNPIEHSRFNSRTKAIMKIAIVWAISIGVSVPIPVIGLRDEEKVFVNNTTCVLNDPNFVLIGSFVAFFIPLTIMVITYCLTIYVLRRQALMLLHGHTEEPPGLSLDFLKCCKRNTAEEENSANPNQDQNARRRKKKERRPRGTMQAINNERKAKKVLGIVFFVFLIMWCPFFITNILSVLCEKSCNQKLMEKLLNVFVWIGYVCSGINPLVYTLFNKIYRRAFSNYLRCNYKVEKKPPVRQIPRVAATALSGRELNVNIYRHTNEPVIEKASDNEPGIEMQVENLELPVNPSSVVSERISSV

[5] = molecular target: T2, endogenous human 5-HT2C receptor (Homo sapiens, UniProt P28335)
T2 sequence (P28335 33-458): T1 sequence (P28335 33-458 S310K) with K278S

## Cn1cc(Br)c(-c2cccc(NC(=O)c3cccs3)c2)n1 [Compound 116102, N-[3-(4-bromo-1-methylpyrazol-3-yl)phenyl][2-thienyl]carboxamide]
[1]
  inverse agonist activity at the human 5HT2A receptor: potent inverse agonist
[2]; 116102 s.c. 0.1, 1.0, 5.0 mg/kg, d-amphetamine sulfate 1.0 mg/kg
  amphetamine-stimulated locomotion (photobeam breaks): a decrease in the amphetamine-stimulated locomotion
[2]; 116102 s.c. 0.1-10 mg/kg, FIGS. 17A-C
  dose-response pattern of locomotor activity: a general "inverted U" shaped pattern was observed

## COc1ccc(OC(=O)Nc2cccc(-c3nn(C)cc3Br)c2)cc1 [Compound 116100, N-[3-(4-bromo-1-methylpyrazol-3-yl)phenyl][4-methoxyphenoxy]carboxamide]
[3]
  displacement of I125-LSD from cortex (5HT2A): appears to selectively displace the I^125 -LSD from the cortex (5HT2A)

## CN1CCN2c3ccccc3Cc3ccccc3C2C1 (centres unmarked) [mianserin]
[4]
  inhibition of serotonin-stimulated [35S]GTPγS binding, AP-1 (FIG. 10): inhibition
[5]; 30 μM mianserin, COS cells
  inhibition of serotonin-stimulated [35S]GTPγS binding (FIG. 9): completely inhibited
[5]; endogenous human 5-HT2C per text
  inhibition of serotonin-stimulated [35S]GTPγS binding (FIG. 10): inhibits this response
[5]; no agonist, endogenous human 5-HT2C per text
  inhibition of basal constitutive [35S]GTPγS binding (FIG. 10): acts as a partial inverse agonist by inhibiting the basal constitutive binding of [^35 S]GTPγS
